Tests used:
HDAC6 human recombinant = biological target: T1, HDAC6 human recombinant (Homo sapiens, UniProt Q9UBN7); experiment: HDAC enzyme activity inhibition (in vitro), HDAC6 assay; format: biochemical; details: samples at 0.1, 1, 10, 100 and 1000 nM; 37° C. 60 minutes; fluorescence Ex 390, Em 460; read-out: HDAC6 IC50
T1 construct: purchased Calbiochem 382180
T1 sequence (Q9UBN7 1-1215): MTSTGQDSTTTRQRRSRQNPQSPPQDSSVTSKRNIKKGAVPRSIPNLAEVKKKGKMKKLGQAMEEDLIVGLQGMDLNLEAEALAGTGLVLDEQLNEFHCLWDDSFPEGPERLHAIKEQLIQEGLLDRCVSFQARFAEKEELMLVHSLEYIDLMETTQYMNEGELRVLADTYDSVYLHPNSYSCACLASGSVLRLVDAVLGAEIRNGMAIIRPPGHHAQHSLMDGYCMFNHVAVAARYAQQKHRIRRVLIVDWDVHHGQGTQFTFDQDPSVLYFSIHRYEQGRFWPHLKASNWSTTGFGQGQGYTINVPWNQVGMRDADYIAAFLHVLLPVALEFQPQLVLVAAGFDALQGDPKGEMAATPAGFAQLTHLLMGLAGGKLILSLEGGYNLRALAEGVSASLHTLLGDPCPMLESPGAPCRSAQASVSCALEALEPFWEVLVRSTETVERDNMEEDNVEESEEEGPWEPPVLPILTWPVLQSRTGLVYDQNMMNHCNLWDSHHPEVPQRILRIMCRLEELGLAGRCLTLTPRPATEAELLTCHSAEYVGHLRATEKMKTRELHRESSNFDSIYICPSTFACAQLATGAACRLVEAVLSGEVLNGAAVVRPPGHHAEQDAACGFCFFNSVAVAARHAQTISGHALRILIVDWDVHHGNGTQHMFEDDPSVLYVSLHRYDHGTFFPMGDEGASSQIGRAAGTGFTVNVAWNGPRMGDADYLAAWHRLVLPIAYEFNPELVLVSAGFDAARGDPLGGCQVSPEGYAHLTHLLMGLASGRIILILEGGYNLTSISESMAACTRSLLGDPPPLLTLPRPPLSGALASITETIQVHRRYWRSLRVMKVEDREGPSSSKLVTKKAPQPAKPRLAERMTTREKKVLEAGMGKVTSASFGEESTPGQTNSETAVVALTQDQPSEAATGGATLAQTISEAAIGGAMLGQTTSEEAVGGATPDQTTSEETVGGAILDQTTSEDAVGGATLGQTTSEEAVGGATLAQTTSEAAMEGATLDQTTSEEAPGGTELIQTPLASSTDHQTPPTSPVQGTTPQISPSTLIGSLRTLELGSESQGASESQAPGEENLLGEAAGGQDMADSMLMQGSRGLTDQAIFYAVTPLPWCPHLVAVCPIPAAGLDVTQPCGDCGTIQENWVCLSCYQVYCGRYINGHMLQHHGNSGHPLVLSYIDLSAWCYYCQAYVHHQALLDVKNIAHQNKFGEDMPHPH
Procedure, shortened: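 Fluorescence (Ex 390, Em 460) read after a 37° C, 60 min enzyme reaction and a further 30 min developer step at 37° C. Uses recombinant human HDAC6; HDAC1 arm dosed at 100, 1000, 10000 nM.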

HDAC1 = biological target: T2, HDAC1 (Homo sapiens, UniProt Q13547); experiment: HDAC enzyme activity inhibition (in vitro), HDAC1 Fluorimetric Drug Discovery Assay Kit; format: biochemical; details: samples at 100, 1000 and 10000 nM; 37° C. 60 minutes; fluorescence Ex 390, Em 460; read-out: HDAC1 IC50
T2 construct: purchased Enzolifesciences BML-AK511
Procedure, shortened: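 Each sample reacted with enzyme for 60 min at 37° C before a 30-min developer step at the same temperature. HDAC1 doses spanned 100 to 10000 nM. Fluorescent signal was read at Ex 390/Em 460.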

T2 sequence (Q13547 whole entry): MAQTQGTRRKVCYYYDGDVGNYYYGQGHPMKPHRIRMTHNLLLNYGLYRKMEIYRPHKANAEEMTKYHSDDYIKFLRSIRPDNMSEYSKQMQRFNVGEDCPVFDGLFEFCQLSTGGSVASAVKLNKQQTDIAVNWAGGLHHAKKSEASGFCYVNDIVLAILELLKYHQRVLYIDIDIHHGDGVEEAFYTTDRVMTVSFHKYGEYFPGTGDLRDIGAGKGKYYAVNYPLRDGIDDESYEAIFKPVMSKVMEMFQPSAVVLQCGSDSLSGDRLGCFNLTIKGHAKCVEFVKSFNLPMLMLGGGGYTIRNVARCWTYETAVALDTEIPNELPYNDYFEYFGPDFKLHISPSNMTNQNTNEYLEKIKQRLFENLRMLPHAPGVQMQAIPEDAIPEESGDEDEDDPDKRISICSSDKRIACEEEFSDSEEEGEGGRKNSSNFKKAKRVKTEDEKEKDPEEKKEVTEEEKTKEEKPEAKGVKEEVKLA

SMILES	IC50 (HDAC6 human recombinant) [nM]	IC50 (HDAC1) [nM]
CN1CCC(n2c(=O)n(Cc3ccc(-c4nnc(C(F)F)o4)cc3F)c3cc(Br)ccc32)CC1 [Compound 119, 5-bromo-3-(4-(5-(difluoromethyl)-1,3,4-oxadiazole-2-yl)-2-fluorobenzyl)-1-(1-methylpiperidine-4-yl)-1,3-dihydro-2H-benzo[d]imidazole-2-one]	80	> 10000
O=c1n(CCN2CC3(COC3)C2)c2ccccc2n1Cc1ccc(-c2nnc(C(F)F)o2)cc1 [Compound 26, 1-(2-(2-oxa-6-azaspiro[3.3]heptane-6-yl)ethyl)-3-(4-(5-(difluoromethyl)-1,3,4-oxadiazole-2-yl)benzyl)-1,3-dihydro-2H-benzo[d]imidazole-2-one]	209	> 10000
CS(=O)(=O)N1CCC(n2c(=O)n(Cc3ccc(-c4nnc(C(F)F)o4)cc3)c3ccc(Cl)cc32)CC1 [Compound 202, 5-chloro-1-(4-(5-(difluoromethyl)-1,3,4-oxadiazole-2-yl)benzyl)-3-(1-(methylsulfonyl)piperidine-4-yl)-1,3-dihydro-2H-benzo[d]imidazole-2-one]	139	> 10000
CS(=O)(=O)N1CCC(n2c(=O)n(Cc3ccc(-c4nnc(C(F)F)o4)cn3)c3ccc(Cl)cc32)CC1 [Compound 200, 5-chloro-1-((5-(5-(difluoromethyl)-1,3,4-oxadiazole-2-yl)pyridine-2-yl)methyl)-3-(1-(methylsulfonyl)piperidine-4-yl)-1,3-dihydro-2H-benzo[d]imidazole-2-one]	40	> 10000
O=c1n(Cc2ccc(-c3nnc(C(F)F)o3)cn2)c2cc(F)c(-c3cccc4[nH]ccc34)cc2n1C1CCN(CC(F)(F)C(F)F)CC1 [Compound 241, 1-((5-(5-(difluoromethyl)-1,3,4-oxadiazole-2-yl)pyridine-2-yl)methyl)-6-fluoro-5-(1H-indole-4-yl)-3-(1-(2,2,3,3-tetrafluoropropyl)piperidine-4-yl)-1,3-dihydro-2H-benzo[d]imidazole-2-one]	94	> 10000
CC(=O)N1CCC(n2c(=O)n(Cc3ccc(-c4nnc(C(F)F)o4)cn3)c3c(F)cccc32)CC1 [Compound 171, 1-(1-acetylpiperidine-4-yl)-3-((5-(5-(difluoromethyl)-1,3,4-oxadiazole-2-yl)pyridine-2-yl)methyl)-4-fluoro-1,3-dihydro-2H-benzo[d]imidazole-2-one]	40	> 10000
CN1CCC(c2cc3oc(=O)n(Cc4ccc(-c5nnc(C(F)F)o5)cn4)c3cc2F)CC1 [Compound 334, 3-((5-(5-(difluoromethyl)-1,3,4-oxadiazole-2-yl)pyridine-2-yl)methyl)-5-fluoro-6-(1-methylpiperidine-4-yl)benzo[d]oxazole-2(3H)-one]	64	> 10000
CN(C)CCn1c(=O)n(Cc2ccc(-c3nnc(C(F)F)o3)cn2)c2cc(F)c(-c3ccncc3)cc21 [Compound 327, 1-((5-(5-(difluoromethyl)-1,3,4-oxadiazole-2-yl)pyridine-2-yl)methyl)-3-(2-(dimethylamino)ethyl)-6-fluoro-5-(pyridine-4-yl)-1,3-dihydro-2H-benzo[d]imidazole-2-one]	58	> 10000

More lines, in order of falling IC50 (HDAC6 human recombinant), values ahead:

IC50 (HDAC6 human recombinant) [nM]	IC50 (HDAC1) [nM]	SMILES
39	> 10000	O=c1n(Cc2ccc(-c3nnc(C(F)F)o3)cn2)c2cc(F)ccc2n1C1CCN(C2CCOCC2)CC1 [Compound 55, 3-((5-(5-(difluoromethyl)-1,3,4-oxadiazole-2-yl)pyridine-2-yl)methyl)-5-fluoro-1-(1-(tetrahydro-2H-pyran-4-yl)piperidine-4-yl)-1,3-dihydro-2H-benzo[d]imidazole-2-one]
38	> 10000	O=c1sc2cc(-c3ccc(CN4CCOCC4)nc3)ccc2n1Cc1ccc(-c2nnc(C(F)F)o2)cn1 [Compound 333, 3-((5-(5-(difluoromethyl)-1,3,4-oxadiazole-2-yl)pyridine-2-yl)methyl)-6-(6-(morpholinomethyl)pyridine-3-yl)benzo[d]thiazole-2(3H)-one]
33	> 10000	O=c1oc2cc(-c3cnn(C4CCNCC4)c3)c(F)cc2n1Cc1ccc(-c2nnc(C(F)F)o2)cn1 [Compound 359, 3-((5-(5-(difluoromethyl)-1,3,4-oxadiazole-2-yl)pyridine-2-yl)methyl)-5-fluoro-6-(1-(piperidine-4-yl)-1H-pyrazole-4-yl)benzo[d]oxazole-2(3H)-one]
33	> 10000	CC(C)N1CCN(c2cc(-c3cc4oc(=O)n(Cc5ccc(-c6nnc(C(F)F)o6)cn5)c4cc3F)ccn2)CC1 [Compound 365, 3-((5-(5-(difluoromethyl)-1,3,4-oxadiazole-2-yl)pyridine-2-yl)methyl)-5-fluoro-6-(2-(4-isopropylpiperazine-1-yl)pyridine-4-yl)benzo[d]oxazole-2(3H)-one]
32	> 10000	O=C(N1CCOCC1)N1CCC(n2c(=O)n(Cc3ccc(-c4nnc(C(F)F)o4)cn3)c3cc(F)ccc32)CC1 [Compound 61, 3-((5-(5-(difluoromethyl)-1,3,4-oxadiazole-2-yl)pyridine-2-yl)methyl)-5-fluoro-1-(1-(morpholine-4-carbonyl)piperidine-4-yl)-1,3-dihydro-2H-benzo[d]imidazole-2-one]
28	> 10000	O=c1n(Cc2ccc(-c3nnc(C(F)F)o3)cn2)c2ccc(Cl)cc2n1C1CCN(C2COC2)CC1 [Compound 98, 5-chloro-1-((5-(5-(difluoromethyl)-1,3,4-oxadiazole-2-yl)pyridine-2-yl)methyl)-3-(1-(oxetan-3-yl)piperidine-4-yl)-1,3-dihydro-2H-benzo[d]imidazole-2-one]
23	> 10000	CCN1CCC(n2c(=O)n(Cc3ccc(-c4nnc(C(F)F)o4)cn3)c3ccc(-c4ccncc4)cc32)CC1 [Compound 283, 1-((5-(5-(difluoromethyl)-1,3,4-oxadiazole-2-yl)pyridine-2-yl)methyl)-3-(1-ethylpiperidine-4-yl)-5-(pyridine-4-yl)-1,3-dihydro-2H-benzo[d]imidazole-2-one]
21	> 10000	Cn1nccc1-c1ccc2c(c1)n(C)c(=O)n2Cc1ccc(-c2nnc(C(F)F)o2)cn1 [Compound 222, 1-((5-(5-(difluoromethyl)-1,3,4-oxadiazole-2-yl)pyridine-2-yl)methyl)-3-methyl-5-(1-methyl-1H-pyrazole-5-yl)-1,3-dihydro-2H-benzo[d]imidazole-2-one]
18	> 10000	CN1CCC(n2c(=O)n(Cc3ccc(-c4nnc(C(F)F)o4)cn3)c3cc(F)c(-c4ccc5c(ccn5C)c4)cc32)CC1 [Compound 250, 1-((5-(5-(difluoromethyl)-1,3,4-oxadiazole-2-yl)pyridine-2-yl)methyl)-6-fluoro-5-(1-methyl-1H-indole-5-yl)-3-(1-methylpiperidine-4-yl)-1,3-dihydro-2H-benzo[d]imidazole-2-one]
13	> 10000	O=c1n(Cc2ccc(-c3nnc(C(F)F)o3)cn2)c2cc(F)c(-c3ccncc3)cc2n1[C@H]1CCCN(C2COC2)C1 [Compound 299, (S)-1-((5-(5-(difluoromethyl)-1,3,4-oxadiazole-2-yl)pyridine-2-yl)methyl)-6-fluoro-3-(1-(oxetan-3-yl)piperidine-3-yl)-5-(pyridine-4-yl)-1,3-dihydro-2H-benzo[d]imidazole-2-one]

From patent publication US20230092890A1, “1, 3, 4-Oxadiazole derivative compounds as histone deacetylase 6 inhibitor, and the pharmaceutical composition comprising the same” (Chong Kun Dang Pharmaceutical Corp., priority 2019, published 2023)
